Measured values reported in paper PMC6792352, “Limited Chemical Structural Diversity Found to Modulate Thyroid Hormone Receptor in the Tox21 Chemical Library” (Environmental Health Perspectives, 2019).
Counter-ions that a name gives are not always drawn.

Assay: in vitro
Conditions: rat, gh3-tre-luc cells, AC50 (uM) modified / 1000

`COCCOC(=O)C1=C(C)NC(C)=C(C(=O)OC(C)C)C1c1cccc([N+](=O)[O-])c1` (centres unmarked) [Nimodipine] and `COC(=O)CCc1ccc(OCC(O)CNC(C)C)cc1` (centres unmarked) [Esmolol hydrochloride] cannot be ordered by CC50 at 24 h: over 50 µM for the first, over 50 µM for the second.

`Cc1ccccc1S(N)(=O)=O` [o-Toluenesulfonamide] and `Cc1nc2ccccc2c(=O)o1` [2-Methyl-4H,3,1-benzoxazin-4-one] cannot be ordered by CC50 at 24 h: over 90 µM for the first, over 90 µM for the second.

`CCCC(=O)OC/C=C(\C)CCC=C(C)C` [Geranyl butyrate] and `CCCCCCOC(=O)CCC` [Hexyl butyrate] cannot be ordered by CC50 at 24 h: over 90 µM for the first, over 90 µM for the second.

Going from `CCCCCCCC/C=C\CCCCCCCC(=O)OCC(O)CO` (centres unmarked) [Glyceryl monooleate] to `CCCCCCCCCCCCCC[N+](C)(C)Cc1ccccc1` [Benzyldimethyltetradecylammonium chloride dihydrate], the CC50 at 24 h falls from over 90 µM to 10.5 µM.

Going from `CCN(Cc1cccc(S(=O)(=O)O)c1)c1ccc(C(=C2C=CC(=[N+](CC)Cc3cccc(S(=O)(=O)O)c3)C=C2)c2ccccc2S(=O)(=O)[O-])cc1` [FD&C Blue No. 1] to `O=S(=O)(O)c1ccccc1/C=C/c1ccc(-c2ccc(/C=C/c3ccccc3S(=O)(=O)O)cc2)cc1` [Disodium 4,4'-bis(2-sulfostyryl)biphenyl], the CC50 at 24 h rises from 50.7 µM to over 80 µM.

`Clc1ccc([C@@H]2C[C@H]3CC[C@@H]2N3)cn1` [(+)-Epibatidine hydrochloride] and `c1ccc([C@H]2CN3CCSC3=N2)cc1` [Levamisole hydrochloride] cannot be ordered by CC50 at 24 h: over 90 µM for the first, over 50 µM for the second.

`C[Si](O[Si](C)(C)C)O[Si](C)(C)C` and `CC(C)C[P+](C)(CC(C)C)CC(C)C` [Triisobutylmethylphosphonium tosylate] cannot be ordered by CC50 at 24 h: over 90 µM for the first, over 90 µM for the second.

`O=C(O)COc1ccc(Cl)cc1` [4-Chlorophenoxyacetic acid] and `CC(C)(C)C(=O)CCc1ccc(Cl)cc1` [1-(4-Chlorophenyl)-4,4-dimethyl-pentan-3-one] cannot be ordered by CC50 at 24 h: over 90 µM for the first, over 90 µM for the second.

`O=C(/C=C/c1ccccc1)OC/C=C/c1ccccc1` [3-Phenyl-2-propen-1-yl 3-phenylacrylate] and `O=C(OOC(=O)c1ccccc1)c1ccccc1` [Benzoyl peroxide] cannot be ordered by CC50 at 24 h: over 90 µM for the first, over 50 µM for the second.

`NC(CS)C(=O)O` (racemic) [DL-Cysteine] and `CCC(C)C(C)=O` (centres unmarked) [3-Methyl-2-pentanone] cannot be ordered by CC50 at 24 h: over 50 µM for the first, over 90 µM for the second.

`NCCCN1CCN(CCCN)CC1` [1,4-bis(3-Aminopropyl)piperazine] and `CCCCCCCCOC(C)=O` [Octyl acetate] cannot be ordered by CC50 at 24 h: over 90 µM for the first, over 90 µM for the second.

`N#CCCNCCC#N` [3,3'-Iminobispropanenitrile] and `CCCCCCCCSCCO` [2-Hydroxyethyl octyl sulfide] cannot be ordered by CC50 at 24 h: over 100 µM for the first, over 90 µM for the second.

`O=c1[nH]c(=O)c2c[nH]nc2[nH]1` [Oxypurinol] and `O=C(O)COc1nc(Cl)c(Cl)cc1Cl` [Triclopyr] cannot be ordered by CC50 at 24 h: over 90 µM for the first, over 90 µM for the second.

`COc1c2occc2cc2ccc(=O)oc12` [8-Methoxypsoralen] and `Oc1ccc(-c2ccccc2)cc1Cl` [2-Chloro-4-phenylphenol] cannot be ordered by CC50 at 24 h: over 50 µM for the first, 81 µM for the second.

`O=P(O)(O)C(Sc1ccc(Cl)cc1)P(=O)(O)O` [Tiludronate disodium] and `N#Cc1ccc(C(=O)O)cc1` [4-Cyanobenzoic acid] cannot be ordered by CC50 at 24 h: over 50 µM for the first, over 90 µM for the second.

`c1ccc2[nH]ccc2c1` [Indole] and `c1ccc2[nH]nnc2c1` [1,2,3-Benzotriazole] cannot be ordered by CC50 at 24 h: over 90 µM for the first, over 90 µM for the second.

`CCCCCCCCCCCCCCCC(=O)OC[C@@H](COP(=O)([O-])OCC[N+](C)(C)C)OC(=O)CCCCCCCCCCCCCCC` and `C=CC(=O)OCC(CC)CCCC` (centres unmarked) [2-Ethylhexyl acrylate] cannot be ordered by CC50 at 24 h: over 50 µM for the first, over 90 µM for the second.

Compared with `CCNC(=O)NCc1cccc(Cl)c1` [Lozilurea], `C=CCOc1cc(Cl)ccc1C(=O)NCCN(CC)CC` [Alloclamide] is lower in CC50 at 24 h: over 50 µM for the first, 9.52 µM for the second.

`CC(=O)[C@@]1(O)CC[C@H]2[C@@H]3C=C(Cl)C4=CC(=O)CC[C@]4(C)[C@H]3CC[C@@]21C` [Chlormadinone] and `CC(C)(C)CC(=O)OCC(=O)[C@@]12OC(C)(C)O[C@@H]1C[C@H]1[C@@H]3CCC4=CC(=O)C=C[C@]4(C)[C@@]3(F)[C@@H](O)C[C@@]12C` [Triamcinolone hexacetonide] cannot be ordered by CC50 at 24 h: over 50 µM for the first, over 50 µM for the second.

`CCCCc1ncc(/C=C(\Cc2cccs2)C(=O)O)n1Cc1ccc(C(=O)O)cc1` [Eprosartan mesylate] and `O=C(O)c1ccc(NC(=O)[C@H](Cc2ccc(O)cc2)NC(=O)c2ccccc2)cc1` [Bentiromide sodium] cannot be ordered by CC50 at 24 h: over 50 µM for the first, over 50 µM for the second.

`C[C@H](O)C(=O)Nc1c(I)c(C(=O)NC(CO)CO)c(I)c(C(=O)NC(CO)CO)c1I` [Iopamidol] and `CCN(CC)CCNC(=O)c1ccc(NC(C)=O)cc1` [Acecainide hydrochloride] cannot be ordered by CC50 at 24 h: over 20 µM for the first, over 50 µM for the second.

`O=C(O)/C=C\C(=O)O` [Maleic acid] and `C/C=C/C(=O)CCCC` [2-Octen-4-one] cannot be ordered by CC50 at 24 h: over 90 µM for the first, over 90 µM for the second.

`CC1=CCC(O)(C(C)C)CC1` (centres unmarked) [4-Methyl-1-(propan-2-yl)cyclohex-3-en-1-ol] and `CCCC(=O)C(CC)Sc1ccoc1C` (centres unmarked) [3-(2-Methyl-3-furylthio)-4-heptanone] cannot be ordered by CC50 at 24 h: over 90 µM for the first, over 90 µM for the second.

`CCOC(=O)C1=NN(c2ccccc2)C(=O)C1` [Ethyl 5-oxo-1-phenyl-4,5-dihydro-1H-pyrazole-3-carboxylate] and `O=C(O)c1cccc(Oc2ccccc2)c1` [3-Phenoxybenzoic acid] cannot be ordered by CC50 at 24 h: over 90 µM for the first, over 90 µM for the second.

`ClC(Cl)(Br)Br` [Dibromodichloromethane] and `O=C(O)c1cc(Br)c(O)c(Br)c1` [3,5-Dibromo-4-hydroxybenzoic acid] cannot be ordered by CC50 at 24 h: over 90 µM for the first, over 90 µM for the second.

`O=C1c2ccccc2CCc2ccccc21` [Dibenzosuberone] and `OCCOc1ccccc1` [2-Phenoxyethanol] cannot be ordered by CC50 at 24 h: over 90 µM for the first, over 90 µM for the second.

`Nc1nc(NC2CC2)c2ncn([C@H]3C=C[C@@H](CO)C3)c2n1` [Abacavir] and `CN1[C@@H]2CCC[C@H]1C[C@@H](NC(=O)c1nn(C)c3ccccc13)C2` [Granisetron hydrochloride] cannot be ordered by CC50 at 24 h: over 50 µM for the first, over 50 µM for the second.

`CNC(C)Cc1ccccc1` (racemic) [dl-Methamphetamine hydrochloride] and `C#CCN(C)[C@H](C)Cc1ccccc1` [Selegiline hydrochloride] cannot be ordered by CC50 at 24 h: over 90 µM for the first, over 50 µM for the second.

`CCc1nn(C2CCCCC2)c2cc(C3(C#N)CCC(C(=O)O)CC3)ccc12` (centres unmarked) [CP-401387] and `O=C(O)c1ccc2c(c1)nc(C(=O)NC1CCN(C3CC3)CC1)n2Cc1cc(-c2ccc(Cl)s2)on1` [AVE3247] cannot be ordered by CC50 at 24 h: 49.9 µM for the first, over 20 µM for the second.

`Cc1ccsc1/C=C/C1=NCCCN1C` [Morantel tartrate] and `Cc1ccc(Nc2nccc(N(C)c3ccc4c(C)n(C)nc4c3)n2)cc1S(N)(=O)=O` [Pazopanib] cannot be ordered by CC50 at 24 h: over 20 µM for the first, over 50 µM for the second.

`CC(C)(C(=O)c1cccnc1)c1cccnc1` [Metyrapone] and `Nc1cccc(C(F)(F)F)c1` [3-(Trifluoromethyl)aniline] cannot be ordered by CC50 at 24 h: over 20 µM for the first, over 90 µM for the second.

`COc1ccc(N)c(OC)c1` [2,4-Dimethoxyaniline hydrochloride] and `CC(C)NCC(O)c1cc(O)cc(O)c1` (centres unmarked) [Orciprenaline sulfate] cannot be ordered by CC50 at 24 h: over 50 µM for the first, over 50 µM for the second.

`O=C1CCCCCCCCCCCC(=O)OCCO1` [1,4-Dioxacycloheptadecane-5,17-dione] and `CNC1(C)C2CCC(C2)C1(C)C` (centres unmarked) [Mecamylamine] cannot be ordered by CC50 at 24 h: over 90 µM for the first, over 50 µM for the second.

`CCCCOC(=O)C(C)CC` (centres unmarked) [Butyl 2-methylbutyrate] and `CCOC(=O)CC` [Ethyl propionate] cannot be ordered by CC50 at 24 h: over 90 µM for the first, over 90 µM for the second.

`CC(C)(CCl)C(=O)Cl` [3-Chloro-2,2-dimethylpropanoyl chloride] and `ClCC1CO1` (centres unmarked) [Epichlorohydrin] cannot be ordered by CC50 at 24 h: over 90 µM for the first, over 90 µM for the second.

With `CCCCS` [1-Butanethiol] the CC50 at 24 h was over 90 µM.

Same assay, conditions: rat, gh3-tre-luc cells, AC50 (uM) modified / 1000, Tox21_110001=Tox21_111239; viability, 1 nM T3 present, 24 h

With `CC(C)NC(C)Cc1ccc(I)cc1` (centres unmarked) [Iofetamine hydrochloride] the CC50 at 24 h was over 50 µM.

Same assay, conditions: rat, gh3-tre-luc cells, AC50 (uM) modified / 1000, Tox21_110001=Tox21_112027; viability, 1 nM T3 present, 24 h

For `COc1ccc2c3c1O[C@H]1[C@@H](O)C=C[C@H]4[C@@H](C2)NCC[C@@]341` [Norcodeine], the CC50 at 24 h was over 50 µM.

Same assay, conditions: rat, gh3-tre-luc cells, AC50 (uM) modified / 1000, Tox21_110001=Tox21_113042; viability, 1 nM T3 present, 24 h

`O=C(O)Cc1ccccc1` [Phenylacetic acid] showed a CC50 at 24 h of over 50 µM.

Same assay, conditions: rat, gh3-tre-luc cells, AC50 (uM) modified / 1000, Tox21_110001=Tox21_200200; viability, 1 nM T3 present, 24 h

With `C=CCO` [Allyl alcohol] the CC50 at 24 h was over 100 µM.

Same assay, conditions: rat, gh3-tre-luc cells, AC50 (uM) modified / 1000, Tox21_110001=Tox21_200533; viability, 1 nM T3 present, 24 h

`O=C(O)Cc1ccccc1` [Phenylacetic acid] showed a CC50 at 24 h of over 90 µM.

Same assay, conditions: rat, gh3-tre-luc cells, AC50 (uM) modified / 1000, Tox21_110001=Tox21_200685; viability, 1 nM T3 present, 24 h

`O=C(Cc1ccccc1)OCc1ccccc1` [Benzyl phenylacetate] showed a CC50 at 24 h of over 90 µM.

Same assay, conditions: rat, gh3-tre-luc cells, AC50 (uM) modified / 1000, Tox21_110001=Tox21_201929; viability, 1 nM T3 present, 24 h

Compound `CC(C)C#N` [2-Methylpropanenitrile] has a CC50 at 24 h of over 90 µM.

Same assay, conditions: rat, gh3-tre-luc cells, AC50 (uM) modified / 1000, Tox21_110001=Tox21_300739; viability, 1 nM T3 present, 24 h

Compound `COc1cc(Cl)c(OC)cc1Cl` [Chloroneb] has a CC50 at 24 h of over 90 µM.

Same assay, conditions: rat, gh3-tre-luc cells, AC50 (uM) modified / 1000, Tox21_110001=Tox21_301412; viability, 1 nM T3 present, 24 h

Work on `Cc1cc(Cl)ccc1N=CN(C)C` [Chlordimeform hydrochloride] yielded a CC50 at 24 h of over 90 µM.

Same assay, conditions: rat, gh3-tre-luc cells, AC50 (uM) modified / 1000, Tox21_110001=Tox21_301843; viability, 1 nM T3 present, 24 h

For `COC(=O)c1ccccc1S(=O)(=O)NC(=O)Nc1nc(C)cc(C)n1` [Sulfometuron-methyl], the CC50 at 24 h was over 90 µM.

Same assay, conditions: rat, gh3-tre-luc cells, AC50 (uM) modified / 1000, Tox21_110001=Tox21_302159; viability, 1 nM T3 present, 24 h

`O=C(Cc1ccccc1)c1ccccc1` [1,2-Diphenylethanone] showed a CC50 at 24 h of over 90 µM.

Same assay, conditions: rat, gh3-tre-luc cells, AC50 (uM) modified / 1000, Tox21_110001=Tox21_303507; viability, 1 nM T3 present, 24 h

Compound `C=CCO` [Allyl alcohol] has a CC50 at 24 h of over 90 µM.
